Measured values: paper PMC11873939, “Target Identification with Live-Cell Photoaffinity Labeling and Mechanism of Action Elucidation of ARN23765, a Highly Potent CFTR Corrector” (Journal of Medicinal Chemistry, 2025)

What was measured:
Experiment in all cases: Protein maturation assay (WB) of F508del-CFTR double mutants in transfected HEK293 cells
Format in all cases: cell-based
[1] = target: T1, F508del-CFTR double mutants (K68I, N71I, R74A, F81A, A198Y, W361A, S364F) (Homo sapiens, UniProt P13569, DEL508-508/K68I); settings: F508del/K68I-CFTR; HEK293, 10 nM, 24 h
T1 construct: CFTR identification in pull-down studies and analysis of full-length CFTR in protein maturation assays; expressed in transfected cells; host or cells: HEK293 (transient, pCDNA3.1 constructs, JetPEI)
Description: (§1) To confirm in cells the above-predicted binding site for ARN23765, we introduced the investigated single-site mutations into the F508del-CFTR coding sequence. The rescue of double mutant proteins (F508del + new mutation) by ARN23765 was assessed with WB analysis of protein maturation and evaluation of channel activity (FLIPR assay)[40] in transfected HEK293 cells. Since correctors 3151 (type II)[16] and VX-445 (type III)[18] have been reported to bind to different CFTR sites, we used these compounds as controls. As expected, ARN23765-induced maturation of F508del-CFTR was not affected by the N71I substitution. […] Indeed, the corrector was no longer able to promote protein maturation (Figure 9A and S8A). […] The results of protein maturation analysis were mostly confirmed by functional data (Figure 9B and S8B), in which the channel activity of double-mutated proteins was evaluated in terms of the change in cell membrane potential change (FLIPR assay).
(§2) HEK293 cells were plated in 24-wells at around 80% of confluence and transfected with constructs coding for F508del-CFTR or mutants using JetPEI reagent (101000053, Polyplus Technology) following the manufacturer’s instructions. After 24 h, the correctors were added for a further 24 h. Correctors were used at the following concentrations: ARN23765 (10 nM), VX-445 (3 μM), and 3151 (10 μM). For binding site analysis experiments, the cells were kept either at 37 °C (Figure S8) or moved to 30 °C (Figure 9) during incubation with the selected correctors. VX-445 and corrector 3151 were mixed together as a control for maximal protein correction. DMSO (0.2%) was added to nontreated controls. After treatment, cells were lysed in RIPA buffer [50 mM tris-HCl pH 8, 150 mM NaCl, 1% NP40, 0.5% sodium deoxycolate, 0.1% SDS, 2.0 mM EDTA] and lysates were analyzed with WB, as described in the supplementary methods of the Supporting Information. […]
(§3) Site-directed mutagenesis
(§4) Desired mutations were introduced using the QuikChange II XL site-directed mutagenesis kit (200522,
(§5) Agilent Technologies) according to the manufacturer’s instructions. F508del-CFTR pCDNA3.1 was used
(§6) as a template for the synthesis of mutated constructs K68I/F508del-CFTR, N71I/F508del-CFTR,
(§7) S364F/F508del-CFTR. The introduction of the mutation and the whole CFTR sequence were checked by
(§8) Sanger sequencing. Mutants R1070W/F508del-CFTR and R170G-
(§9) CFTR were produced as previously described.4

[2] = target: T2, F508del-CFTR double mutants (K68I, N71I, R74A, F81A, A198Y, W361A, S364F) (Homo sapiens, UniProt P13569, DEL508-508/F81A); settings: F508del/F81A-CFTR; HEK293, 10 nM, 24 h
T2 construct: CFTR identification in pull-down studies and analysis of full-length CFTR in protein maturation assays; expressed in transfected cells; host or cells: HEK293 (transient, pCDNA3.1 constructs, JetPEI)
Description: as §1, §2, §3, §4, §5, §6, §7, §8, §9

[3] = target: T3, F508del-CFTR double mutants (K68I, N71I, R74A, F81A, A198Y, W361A, S364F) (Homo sapiens, UniProt P13569, DEL508-508/N71I); settings: F508del/N71I-CFTR; HEK293, 10 nM, 24 h
T3 construct: CFTR identification in pull-down studies and analysis of full-length CFTR in protein maturation assays; expressed in transfected cells; host or cells: HEK293 (transient, pCDNA3.1 constructs, JetPEI)
Description: as §1, §2, §3, §4, §5, §6, §7, §8, §9

[4] = target: T4, F508del-CFTR double mutants (K68I, N71I, R74A, F81A, A198Y, W361A, S364F) (Homo sapiens, UniProt P13569, A198Y/DEL508-508); settings: F508del/A198Y-CFTR; HEK293, 10 nM, 24 h
T4 construct: CFTR identification in pull-down studies and analysis of full-length CFTR in protein maturation assays; expressed in transfected cells; host or cells: HEK293 (transient, pCDNA3.1 constructs, JetPEI)
Description: as §1, §2, §3, §4, §5, §6, §7, §8, §9

[5] = target: T5, F508del-CFTR double mutants (K68I, N71I, R74A, F81A, A198Y, W361A, S364F) (Homo sapiens, UniProt P13569, DEL508-508/R74A); settings: F508del/R74A-CFTR; HEK293, 10 nM, 24 h
T5 construct: CFTR identification in pull-down studies and analysis of full-length CFTR in protein maturation assays; expressed in transfected cells; host or cells: HEK293 (transient, pCDNA3.1 constructs, JetPEI)
Description: as §1, §2, §3, §4, §5, §6, §7, §8, §9

[6] = target: T6, F508del-CFTR double mutants (K68I, N71I, R74A, F81A, A198Y, W361A, S364F) (Homo sapiens, UniProt P13569, DEL508-508/W361A); settings: F508del/W361A-CFTR; HEK293, 10 nM, 24 h
T6 construct: CFTR identification in pull-down studies and analysis of full-length CFTR in protein maturation assays; expressed in transfected cells; host or cells: HEK293 (transient, pCDNA3.1 constructs, JetPEI)
Description: as §1, §2, §3, §4, §5, §6, §7, §8, §9

[7] = target: T7, F508del-CFTR double mutants (K68I, N71I, R74A, F81A, A198Y, W361A, S364F) (Homo sapiens, UniProt P13569, DEL508-508/S364F); settings: F508del/S364F-CFTR; HEK293, 10 nM, 24 h
T7 construct: CFTR identification in pull-down studies and analysis of full-length CFTR in protein maturation assays; expressed in transfected cells; host or cells: HEK293 (transient, pCDNA3.1 constructs, JetPEI)
Description: as §1, §2, §3, §4, §5, §6, §7, §8, §9

T2 sequence (P13569 with tags, fused parts or gaps F81A/DEL508-508): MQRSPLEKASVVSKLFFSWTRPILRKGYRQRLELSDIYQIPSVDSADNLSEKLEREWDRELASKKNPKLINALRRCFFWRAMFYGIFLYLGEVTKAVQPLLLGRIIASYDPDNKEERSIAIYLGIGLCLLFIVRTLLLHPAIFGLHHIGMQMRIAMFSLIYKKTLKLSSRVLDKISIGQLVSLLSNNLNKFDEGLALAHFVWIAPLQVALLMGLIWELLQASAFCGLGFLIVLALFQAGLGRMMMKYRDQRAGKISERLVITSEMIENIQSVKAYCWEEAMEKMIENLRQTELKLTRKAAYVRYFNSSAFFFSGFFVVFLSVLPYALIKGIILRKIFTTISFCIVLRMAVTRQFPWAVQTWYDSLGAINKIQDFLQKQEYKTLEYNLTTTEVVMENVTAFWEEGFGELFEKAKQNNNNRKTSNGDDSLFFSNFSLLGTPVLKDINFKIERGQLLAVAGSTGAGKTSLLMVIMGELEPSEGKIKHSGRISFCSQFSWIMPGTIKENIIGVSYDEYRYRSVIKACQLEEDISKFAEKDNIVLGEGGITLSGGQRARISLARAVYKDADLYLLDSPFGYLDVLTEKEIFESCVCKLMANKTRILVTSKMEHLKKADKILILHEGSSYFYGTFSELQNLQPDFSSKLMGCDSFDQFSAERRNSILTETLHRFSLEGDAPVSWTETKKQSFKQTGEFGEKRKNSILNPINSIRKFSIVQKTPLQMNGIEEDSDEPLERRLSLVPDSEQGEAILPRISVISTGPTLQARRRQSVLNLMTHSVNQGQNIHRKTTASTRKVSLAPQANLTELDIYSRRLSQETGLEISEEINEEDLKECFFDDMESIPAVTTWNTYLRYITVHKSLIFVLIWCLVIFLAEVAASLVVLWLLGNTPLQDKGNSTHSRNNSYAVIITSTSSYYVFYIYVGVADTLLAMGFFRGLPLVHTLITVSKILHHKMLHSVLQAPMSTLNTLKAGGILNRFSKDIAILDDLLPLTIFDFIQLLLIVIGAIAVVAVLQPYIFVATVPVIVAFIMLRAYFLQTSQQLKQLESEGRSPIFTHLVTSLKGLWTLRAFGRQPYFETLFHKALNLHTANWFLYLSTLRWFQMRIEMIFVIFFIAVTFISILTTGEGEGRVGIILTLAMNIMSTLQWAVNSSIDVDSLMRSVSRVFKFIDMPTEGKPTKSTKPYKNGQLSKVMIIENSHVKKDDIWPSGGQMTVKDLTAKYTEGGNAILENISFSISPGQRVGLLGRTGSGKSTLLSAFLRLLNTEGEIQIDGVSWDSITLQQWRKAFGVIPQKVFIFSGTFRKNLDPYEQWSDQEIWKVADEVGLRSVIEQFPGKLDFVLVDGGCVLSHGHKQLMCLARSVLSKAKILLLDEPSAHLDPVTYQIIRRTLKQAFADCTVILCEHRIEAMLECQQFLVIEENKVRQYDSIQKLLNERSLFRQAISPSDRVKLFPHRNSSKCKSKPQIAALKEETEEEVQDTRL
T7 sequence (P13569 with tags, fused parts or gaps S364F/DEL508-508): as the sequence (P13569 with tags, fused parts or gaps F81A/DEL508-508) above, with A81F, S364F counted along it
T1 sequence (P13569 with tags, fused parts or gaps K68I/DEL508-508): as the sequence (P13569 with tags, fused parts or gaps F81A/DEL508-508) above, with K68I, A81F counted along it
T4 sequence (P13569 with tags, fused parts or gaps A198Y/DEL508-508): as the sequence (P13569 with tags, fused parts or gaps F81A/DEL508-508) above, with A81F, A198Y counted along it
T5 sequence (P13569 with tags, fused parts or gaps R74A/DEL508-508): as the sequence (P13569 with tags, fused parts or gaps F81A/DEL508-508) above, with R74A, A81F counted along it
T3 sequence (P13569 with tags, fused parts or gaps N71I/DEL508-508): as the sequence (P13569 with tags, fused parts or gaps F81A/DEL508-508) above, with N71I, A81F counted along it
T6 sequence (P13569 with tags, fused parts or gaps W361A/DEL508-508): as the sequence (P13569 with tags, fused parts or gaps F81A/DEL508-508) above, with A81F, W361A counted along it

With `CN(C(=O)c1cccc(-n2nc(C(F)(F)F)c3c2[C@@H](Oc2ccc(C(=O)O)cc2)CCC3)c1)c1ccc2c(c1)OC(F)(F)O2` [ARN23765] the “Effect of second mutation on corrector-induced rescue of F508del-CFTR” value [1] was “no appreciable change”, the “Effect of second mutation on corrector-induced maturation of F508del-CFTR” value [2] was “markedly reduced or abolished” and the “Effect of second mutation on corrector-induced maturation of F508del-CFTR” value [3] was “not affected”. The “Effect of second mutation on corrector-induced maturation of F508del-CFTR” value [4] was “markedly reduced or abolished”, the “Effect of second mutation on corrector-induced maturation of F508del-CFTR” value [5] was “only slightly reduced” and the “Effect of second mutation on corrector-induced maturation of F508del-CFTR” value [6] was “markedly reduced or abolished”. For the same compound, the “Effect of second mutation on corrector-induced maturation of F508del-CFTR” value [7] was “only slightly reduced”.
